Source: ChEMBL document CHEMBL3880410, “Novel oxabispidine compounds and their use in the treatment of cardiac arrhythmias” (2009)

Each molecule was assayed on Cavia porcellus (assay: Anti-cardiac arrhythmia activity in anaesthetised guinea pig assessed as cumulative dose inducing prolongation of monophasic action potential duration by 10% from baseline administered as first dose infusion in 0.2 mL/kg into jugular vein catheter for 30 secs followed by next dosing after 5 mins for 6 to 10 consecutive times by electrophysiology based assay).
Assay type: functional

Compound | D10 [mg/kg]
CN(CCN1CC2CN(CCc3ccc(F)c(F)c3)CC(C1)O2)S(=O)(=O)c1ccc(C#N)cc1 | >5.5
N#Cc1ccc(S(=O)(=O)NCCCN2CC3CN(CCc4ccc(F)cc4)CC(C2)O3)cc1 | >5.5
O=S(=O)(NCCN1CC2CN(CCc3ccccc3F)CC(C1)O2)c1ccc(F)cc1 | >5.5
N#Cc1ccc(S(=O)(=O)NCCCN2CC3CN(CCc4c(F)cccc4F)CC(C2)O3)cc1 | >5.5
N#Cc1ccc(S(=O)(=O)NCCCN2CC3CN(CCc4ccccc4F)CC(C2)O3)cc1 | >5.5
N#Cc1ccc(S(=O)(=O)NCCCN2CC3CN(CCc4cccc(F)c4)CC(C2)O3)cc1 | >5.5
N#Cc1ccc(S(=O)(=O)NCCN2CC3CN(CCCOc4ccc(F)cc4F)CC(C2)O3)cc1 | >5.5
N#Cc1ccc(S(=O)(=O)NCCN2CC3CN(CCc4ccc(F)cc4F)CC(C2)O3)cc1 | >5.5
N#Cc1ccc(S(=O)(=O)NCCCN2CC3CN(CCCOc4ccc(F)cc4)CC(C2)O3)cc1 | >5.5
CN(CCN1CC2CN(CCc3ccc(Cl)cc3)CC(C1)O2)S(=O)(=O)c1ccc(C#N)cc1 | >5.5
O=S(=O)(NCCN1CC2CN(CCc3ccccc3)CC(C1)O2)c1ccc(F)cc1 | >5.5
CN(CCN1CC2CN(CCc3ccc(F)cc3F)CC(C1)O2)S(=O)(=O)c1ccc(C#N)cc1 | >5.5
N#Cc1ccc(S(=O)(=O)NCCN2CC3CN(Cc4noc5ccccc45)CC(C2)O3)cc1 | >5.5
N#Cc1ccc(S(=O)(=O)NCCCN2CC3CN(CCOc4c(F)cccc4F)CC(C2)O3)cc1 | >5.5
CN(CCN1CC2CN(CCCOc3ccc(F)cc3F)CC(C1)O2)S(=O)(=O)c1ccc(C#N)cc1 | >5.5
N#Cc1ccc(S(=O)(=O)NCCCN2CC3CN(Cc4ccc(F)cc4)CC(C2)O3)cc1 | >5.5
CN(CCN1CC2CN(CCCOc3ccc(F)cc3)CC(C1)O2)S(=O)(=O)c1ccc(C#N)cc1 | >5.5
N#Cc1ccc(S(=O)(=O)NCCCN2CC3CN(Cc4ccccc4)CC(C2)O3)cc1 | >5.5
N#Cc1ccc(CN2CC3CN(CCCNS(=O)(=O)c4ccc(C#N)cc4)CC(C2)O3)cc1 | >5.5
N#Cc1ccc(S(=O)(=O)NCCCN2CC3CN(CCc4ccc(F)c(F)c4)CC(C2)O3)cc1 | >5.5
CN(CCN1CC2CN(CCc3ccc(F)cc3)CC(C1)O2)S(=O)(=O)c1ccc(C#N)cc1 | >5.5
